Tests used:
C1 dorsal horn cells = assay: Annexin fluorescence histochemistry after ibotenic acid pledget on C1-C2 spinal segments; type: in vivo, rats; settings: pledget on C1-C2 for 2 hrs, after 14-16 hrs
Text: After 14-16 hrs, rats were perfused with fixative and the medulla, C1-2, C3-5 segments were processed for annexin fluorescence histochemistry. Photomicrographs are from the C1 dorsal horn and the gray matter is outlined. […] White arrows point to unlabeled (black) cells in the dorsal horn. […] Annexin binding indicates cells with energy impairment and/or undergoing apotosis. Annexin belongs to a family of proteins that bind acidic phospholipids, particularly phosphotidylserine (PS). PS is assymetically distributed in the cell membrane by the enzyme, aminophospholipid translocase. Following energy impairment, PS distributes to the outer cell leaflet and annexin binding illustrates cells with PS on the outside of the cell.
Chemical disruption of the C1-C2 spinal neurons alters the effects of stimulation of the cardiac afferent input on the regulation of information processing in the cervical and thoracic spinal cord. In order to produce chemical disruption of cells, ibotenic acid was chosen because it is an excitotoxin that has been used effectively in previous studies. Ibotenic acid is a structurally rigid glutamate analog that destroys neuronal perikarya, but spares axons and non-neuronal cells. After ibotenic acid is injected into a nucleus or applied to the surface of the spinal cord, the cells in the region are initially excited and then enter a phase of depolarization block. […]

C1-C2 spinal neurons = assay: Vagal inhibition of T3 neuron after ibotenic acid on dorsal C1-C2 spinal cord; type: in vivo; settings: approximately 20 min after ibotenic acid was placed on the spinal cord
Text: FIGS. […] Electrical stimulation of the left cervical vagus (A: LCVS; {30 V, 0.1 ms} ipsilateral to the cell) right cervical vagus (B; RCVS; contralateral) at different frequencies. Vagal stimulation reduced the discharge rate of the evoked response to noxious stimulation of the cardiac afferents intrapericardial injections of bradykinin (C). IA; ibotenic acid. The short horizontal bars represent the period of vagal stimulation, the long horizontal bar represents the bradykinin injection and the numbers indicate the frequencies tested.
Chemical disruption of the C1-C2 spinal neurons alters the effects of stimulation of the cardiac afferent input on the regulation of information processing in the cervical and thoracic spinal cord. In order to produce chemical disruption of cells, ibotenic acid was chosen because it is an excitotoxin that has been used effectively in previous studies. Ibotenic acid is a structurally rigid glutamate analog that destroys neuronal perikarya, but spares axons and non-neuronal cells. After ibotenic acid is injected into a nucleus or applied to the surface of the spinal cord, the cells in the region are initially excited and then enter a phase of depolarization block. […] The advantage of this methodology is that the neuronal relays in the C1-C2 segments can be disrupted without interrupting the axons that pass through this region. […]

N[C@H](C(=O)O)c1cc(=O)[nH]o1 [ibotenic acid]
annexin staining of cells (C1 dorsal horn cells): many annexin positive
inhibitory effects to vagal stimulation (C1-C2 spinal neurons): eliminated
